Measurements from publication PMC3125149, “SCYX-7158, an Orally-Active Benzoxaborole for the Treatment of Stage 2 Human African Trypanosomiasis” (PLoS Neglected Tropical Diseases, 2011).

Assays:
T. b. brucei 427 [1] = test: Time-kill assay (ATP content, CellTiter Glo); format: cell-based
Procedure: The assessment of oxaborole-mediated killing of T. b. brucei in vitro was conducted using the CellTiter Glo kit (Promega, Inc., Madison, WI) to measure trypanosome ATP content as a real-time indicator of viability. Test compounds were serially diluted from 5 to 0.01 µg/mL into white wall-clear bottom 96-well plates (Corning Inc., Lowell, MA) containing HMI-9 media. 1×10^4 trypanosomes were added to each well. At specified intervals, the CellTiter Glo reagent was added to lyse the parasites and the plates were incubated for 10 min in the dark. Luminescence was quantified using an EnVision plate reader. All determinations were done in duplicate. Time-kill parameters were determined from plots of parasite viability versus incubation time for each concentration tested.

T. b. brucei 427 [2] = test: Reversibility of trypanocidal effects (wash-out); format: cell-based; conditions: at about 5 times the IC50
Procedure: To establish the time and concentration required to cause persistent or irreversible effects by oxaboroles, T. b. brucei parasites were assessed for their ability to recover from transient exposure to test compounds. Trypanosomes were seeded in clear 96-well V-bottom plates at a density of 1×10^5 parasites per well and incubated with serially diluted test compound (from 10 to 0.02 µg/mL). One plate was prepared for each time point. At the designated time, a plate was removed from the incubator and spun at 2,600 g for 5 min to sediment the parasites. The supernatant was aspirated and 100 µL of warmed HMI-9 media was added to each well. The wash was repeated twice more. The parasites were resuspended in 100 µL of warmed media and 20 µL of this suspension was added to 80 µL of HMI-9 media in triplicate plates. Following a 72 h incubation, resazurin was added and trypanocidal activity determined as described for the in vitro sensitivity assay.

CYP1A2 = biological target: T1, CYP1A2 (Homo sapiens, UniProt P05177); test: P450-Glo cytochrome P450 inhibition; format: biochemical; conditions: human recombinant CYP1A2
T1 construct: purchased Promega Inc., Madison, WI
Procedure: (§1) The potential for compound to exert drug-drug interactions that are mediated through inhibition of cytochrome P450 activities was assessed using P450-Glo assay kits (Promega Inc., Madison, WI). Assays for human cytochrome P450 isoforms 3A4, 1A2, 2C9, 2C19, and 2D6 were performed in triplicate according to the manufacturer's instructions over the concentration range 1–100 µM (n = 6 levels). Briefly, SCYX-7158 was added to membrane preparations containing human recombinant CYP450 enzymes together with luminogenic substrates specific to each isoform. Specific CYP450 inhibitors were included as positive controls (ketoconazole, CYP3A4; alpha-napthoflavone, 1A2; sulfaphenazole, CYP2C9; troglitazone, 2C19, and quinidine, CYP2D6). Reactions were initiated by addition of NADPH-regenerating solution and were allowed to incubate for an additional 15–30 min (isoform dependent). Luciferin detection reagent, containing the luciferin-labeled probe substrate, was then added. Luminescence was recorded on an EnVision Multilabel Plate Reader. Calculation of IC50 concentrations for each enzyme was determined using GraphPad Prism (V5.01).

CYP2C19 = biological target: T2, CYP2C19 (Homo sapiens, UniProt P33261); test: P450-Glo cytochrome P450 inhibition; format: biochemical; conditions: human recombinant CYP2C19
T2 construct: purchased Promega Inc., Madison, WI
Procedure: as §1

CYP2C9 = biological target: T3, CYP2C9 (Homo sapiens, UniProt P11712); test: P450-Glo cytochrome P450 inhibition; format: biochemical; conditions: human recombinant CYP2C9
T3 construct: purchased Promega Inc., Madison, WI
Procedure: as §1

CYP2D6 = biological target: T4, CYP2D6 (Homo sapiens, UniProt P10635); test: P450-Glo cytochrome P450 inhibition; format: biochemical; conditions: human recombinant CYP2D6
T4 construct: purchased Promega Inc., Madison, WI
Procedure: as §1

CYP3A4 = biological target: T5, CYP3A4 (Homo sapiens, UniProt P08684); test: P450-Glo cytochrome P450 inhibition; format: biochemical; conditions: human recombinant CYP3A4
T5 construct: purchased Promega Inc., Madison, WI
Procedure: as §1

hERG potassium channel = hERG potassium channel (Homo sapiens, UniProt Q12809); test: hERG radioligand binding assay; conditions: at 10 µM
Sequence of hERG potassium channel (Q12809 whole entry): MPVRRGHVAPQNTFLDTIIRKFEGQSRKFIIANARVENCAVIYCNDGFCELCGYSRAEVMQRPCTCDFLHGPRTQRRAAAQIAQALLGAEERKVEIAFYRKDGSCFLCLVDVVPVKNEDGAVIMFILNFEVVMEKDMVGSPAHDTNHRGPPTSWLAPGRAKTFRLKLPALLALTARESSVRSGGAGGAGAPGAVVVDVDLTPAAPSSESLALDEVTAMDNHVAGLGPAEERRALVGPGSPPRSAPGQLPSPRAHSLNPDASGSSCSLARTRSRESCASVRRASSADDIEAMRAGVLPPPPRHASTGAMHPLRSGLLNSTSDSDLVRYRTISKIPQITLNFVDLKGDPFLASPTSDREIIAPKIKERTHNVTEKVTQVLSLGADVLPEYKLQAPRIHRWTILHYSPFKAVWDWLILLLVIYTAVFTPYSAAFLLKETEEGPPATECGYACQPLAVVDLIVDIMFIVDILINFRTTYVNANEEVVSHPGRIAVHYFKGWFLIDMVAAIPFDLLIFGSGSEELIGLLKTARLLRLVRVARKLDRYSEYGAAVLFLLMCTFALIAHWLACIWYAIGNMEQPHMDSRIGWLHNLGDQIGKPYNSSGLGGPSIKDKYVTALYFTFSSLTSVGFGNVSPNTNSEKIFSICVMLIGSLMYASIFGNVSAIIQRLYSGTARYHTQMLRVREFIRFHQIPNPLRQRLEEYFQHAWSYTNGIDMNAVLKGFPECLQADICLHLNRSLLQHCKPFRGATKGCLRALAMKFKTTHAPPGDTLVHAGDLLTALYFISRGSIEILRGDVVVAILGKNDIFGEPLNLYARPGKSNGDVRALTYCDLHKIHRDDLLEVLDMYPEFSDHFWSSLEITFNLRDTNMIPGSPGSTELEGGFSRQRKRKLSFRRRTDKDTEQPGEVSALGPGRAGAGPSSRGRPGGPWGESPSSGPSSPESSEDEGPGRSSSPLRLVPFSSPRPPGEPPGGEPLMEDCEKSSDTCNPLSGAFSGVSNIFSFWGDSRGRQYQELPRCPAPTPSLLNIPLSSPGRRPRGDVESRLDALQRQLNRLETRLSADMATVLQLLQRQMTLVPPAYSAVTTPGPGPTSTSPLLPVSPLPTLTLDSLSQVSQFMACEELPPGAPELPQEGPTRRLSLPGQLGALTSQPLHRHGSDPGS

T1 sequence (P05177 whole entry): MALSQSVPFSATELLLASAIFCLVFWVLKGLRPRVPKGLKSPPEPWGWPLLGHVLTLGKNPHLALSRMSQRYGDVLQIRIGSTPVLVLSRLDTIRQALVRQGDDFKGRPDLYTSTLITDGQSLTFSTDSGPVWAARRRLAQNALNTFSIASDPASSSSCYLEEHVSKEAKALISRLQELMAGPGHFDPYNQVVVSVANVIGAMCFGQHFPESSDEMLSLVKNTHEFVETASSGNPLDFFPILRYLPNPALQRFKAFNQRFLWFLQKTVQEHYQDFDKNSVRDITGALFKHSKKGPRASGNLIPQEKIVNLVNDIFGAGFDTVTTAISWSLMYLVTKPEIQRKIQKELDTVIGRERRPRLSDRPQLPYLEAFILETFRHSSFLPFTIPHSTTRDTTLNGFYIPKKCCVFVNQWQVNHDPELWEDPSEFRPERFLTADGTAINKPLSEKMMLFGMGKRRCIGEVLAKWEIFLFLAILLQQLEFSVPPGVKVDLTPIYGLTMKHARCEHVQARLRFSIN
T5 sequence (P08684 whole entry): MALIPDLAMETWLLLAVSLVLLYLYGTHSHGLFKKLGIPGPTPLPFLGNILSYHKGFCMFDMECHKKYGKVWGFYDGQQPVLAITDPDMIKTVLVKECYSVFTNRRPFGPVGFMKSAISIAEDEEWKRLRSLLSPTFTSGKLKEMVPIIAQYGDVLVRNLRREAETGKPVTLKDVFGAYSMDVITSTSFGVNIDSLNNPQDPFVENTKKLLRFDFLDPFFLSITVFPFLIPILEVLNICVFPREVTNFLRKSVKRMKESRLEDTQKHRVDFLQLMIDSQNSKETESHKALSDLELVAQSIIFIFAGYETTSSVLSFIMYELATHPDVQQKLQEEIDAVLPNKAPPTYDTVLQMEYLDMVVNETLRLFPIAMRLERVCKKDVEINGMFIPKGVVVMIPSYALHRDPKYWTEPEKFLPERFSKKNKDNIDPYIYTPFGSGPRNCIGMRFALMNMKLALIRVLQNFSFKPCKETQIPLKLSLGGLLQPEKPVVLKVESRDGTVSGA
T3 sequence (P11712 whole entry): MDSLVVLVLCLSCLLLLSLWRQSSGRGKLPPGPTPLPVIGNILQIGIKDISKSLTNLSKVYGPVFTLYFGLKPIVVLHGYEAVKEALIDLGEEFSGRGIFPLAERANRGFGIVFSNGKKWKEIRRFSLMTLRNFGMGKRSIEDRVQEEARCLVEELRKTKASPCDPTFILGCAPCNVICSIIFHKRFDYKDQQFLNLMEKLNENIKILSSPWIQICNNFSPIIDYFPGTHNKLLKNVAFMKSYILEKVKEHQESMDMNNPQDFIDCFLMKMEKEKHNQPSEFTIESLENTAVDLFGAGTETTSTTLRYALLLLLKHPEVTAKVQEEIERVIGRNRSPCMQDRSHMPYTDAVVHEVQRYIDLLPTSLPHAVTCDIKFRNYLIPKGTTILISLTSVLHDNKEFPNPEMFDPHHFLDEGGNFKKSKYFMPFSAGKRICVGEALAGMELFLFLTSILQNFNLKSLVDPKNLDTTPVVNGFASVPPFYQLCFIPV
T4 sequence (P10635 whole entry): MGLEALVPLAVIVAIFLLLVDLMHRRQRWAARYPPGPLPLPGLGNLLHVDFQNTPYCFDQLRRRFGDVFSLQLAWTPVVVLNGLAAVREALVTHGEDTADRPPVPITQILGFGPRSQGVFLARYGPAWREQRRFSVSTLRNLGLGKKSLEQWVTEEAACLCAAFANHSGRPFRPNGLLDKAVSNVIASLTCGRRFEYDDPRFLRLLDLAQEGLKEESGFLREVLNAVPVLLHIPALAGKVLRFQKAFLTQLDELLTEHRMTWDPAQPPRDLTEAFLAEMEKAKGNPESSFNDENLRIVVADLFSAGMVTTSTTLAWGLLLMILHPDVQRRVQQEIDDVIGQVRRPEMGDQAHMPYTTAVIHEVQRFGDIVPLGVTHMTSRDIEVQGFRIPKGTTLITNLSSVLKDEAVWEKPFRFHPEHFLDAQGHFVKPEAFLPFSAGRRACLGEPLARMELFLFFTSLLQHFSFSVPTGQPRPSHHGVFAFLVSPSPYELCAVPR
T2 sequence (P33261 whole entry): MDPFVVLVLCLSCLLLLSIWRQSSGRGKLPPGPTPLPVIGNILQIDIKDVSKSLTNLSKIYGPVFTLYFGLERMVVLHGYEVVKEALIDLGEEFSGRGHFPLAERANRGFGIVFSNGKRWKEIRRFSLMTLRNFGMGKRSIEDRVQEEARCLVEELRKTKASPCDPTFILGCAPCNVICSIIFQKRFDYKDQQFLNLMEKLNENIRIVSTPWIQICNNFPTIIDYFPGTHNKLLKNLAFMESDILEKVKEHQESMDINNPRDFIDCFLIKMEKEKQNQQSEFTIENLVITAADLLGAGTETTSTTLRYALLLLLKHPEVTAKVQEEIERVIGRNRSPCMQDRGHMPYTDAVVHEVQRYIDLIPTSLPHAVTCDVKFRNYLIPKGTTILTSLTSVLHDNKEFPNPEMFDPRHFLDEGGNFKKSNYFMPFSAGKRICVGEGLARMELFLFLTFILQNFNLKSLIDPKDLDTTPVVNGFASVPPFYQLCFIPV

CC1(C)OB(O)c2cc(NC(=O)c3ccc(F)cc3C(F)(F)F)ccc21 [SCYX-7158]
reduction in viability (T. b. brucei 427 [1]; within 8 h of exposure at 1.25 µg/mL (about 2 times the MIC)): greater than 50% | parasites killed (T. b. brucei 427 [1]; within 24 h of exposure, 1.25 µg/mL): > 99% | exposure time sufficient to produce irreversible effects on trypanosome survival (T. b. brucei 427 [2]): 10 to 12 h | IC50 (CYP1A2): > 100 µM | IC50 (CYP2C19): 23.1 µM | IC50 (CYP2C9): 23.5 µM | IC50 (CYP2D6): 21.1 µM | IC50 (CYP3A4): 47.4 µM | binding to hERG channel (hERG potassium channel): −6%
